Results reported in article PMC11725581, “Developing novel Lin28 inhibitors by computer aided drug design” (Cell Death Discovery, 2025).
pIC50: −log10 of the molar value.

Tests used:
cancer cells = tested on: cancer cells; design: method as in PMID 27548809; conditions: cited from earlier work
Lin28a protein = molecular target: T1, Lin28a protein (Homo sapiens, UniProt Q9H9Z2); assay: EMSA with Lin28a protein and pre-let-7d probe; format: binding; conditions: same EMSA conditions
T1 sequence (Q9H9Z2 1-209): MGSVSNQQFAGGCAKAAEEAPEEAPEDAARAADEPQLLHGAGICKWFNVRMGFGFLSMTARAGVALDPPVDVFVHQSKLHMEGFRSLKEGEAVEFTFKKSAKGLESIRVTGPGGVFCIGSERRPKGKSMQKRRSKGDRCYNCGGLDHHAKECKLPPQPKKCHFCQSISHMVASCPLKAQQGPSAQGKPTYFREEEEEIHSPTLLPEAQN
Experimental: (§1) We next validated the newly developed compounds using EMSA, a non-florescent-based assay to detect Lin28b ZKD:pre-let-7 complex formation. Similar to the FP assays, we first optimized the experimental conditions by titrating: (1) IRDye800-labeled pre-let-7d RNA probe, (2) Lin28b ZKD protein, and (3) non-labeled pre-let-7 probe as a competitor (Fig. 2C). For the validation experiments, 1 μM Lin28 ZKD and 10 nM of IRDye800-labeled pre-let-7d probe were mixed with each candidate compound. Compounds C1632 and Ln15 were used as control Lin28 inhibitors, respectively. […] Regardless, we use these two biochemical assays to shortlist the most promising compounds for further characterization. […] While our inhibitors directly target the Lin28 ZKD, it is unclear whether C1632 may bind to domains other than the ZKD or allosterically disrupt Lin28’s capacity to bind its RNA substrates.
EMSA followed the standard protocols we published. An IRDye800CWN-labeled pre-Let-7d RNA probe (5’-IRD800CWN-[…]-3’) was purchased from IDT (Coralville, IA, USA). Lin28a or Lin28b proteins were incubated with 300 nM of probe in a standard 20 uL EMSA reaction in a reaction buffer containing 20 mM HEPES-NaOH, pH 7.4, 2 mM DTT, 3 mM MgCl2, 0.05% NP-40, protease inhibitors, and 0.1 ug poly[dI:dC]. After incubation for 30 min at 37 °C, reactions were loaded onto 4% non-denatured polyacrylamide gel in 0.5× TBE buffer. […]

DuNE cells = assay: Colony formation assay, DuNE cells; format: cell-based; conditions: 14 days, vs vehicle (~50 colonies)
Text: (§2) CSCs have characteristic tumorigenic, self-renewal, and differentiation properties. The self-renewal ability is hijacked by CSCs that makes them both tumorigenic and capable of sustaining long-term tumor growth, which can be evaluated by 3D spheroid and colony formation assays. We established a DuNE spheroid model in which DuNE cells formed 3D spheroids in 96-well plates (Figure S3). By integrating this 3D culture with the Incucyte live-cell imaging system, we quantified the sizes of the spheroid growth over 0–6 days to generate a spheroid growth curve. Using this model system, we treated the DuNE spheroids with increasing doses (0–100 μM) of C1632, Ln15, and Ln268 for 0–6 days. […] In addition, classic colony formation assays were used to measure the stemness in the DuNE model. Colony formation counts, which were ~50 under vehicle treatment after 14 days, decreased by 22% in C1632-treated plates, and by 75% and 96% in the Ln15 and Ln268 treated plates, respectively (Fig. 4D).
In the colony formation assays, cancer cells were seeded in 0.7% soft agar in a 6-well plate, with a 1% soft agar bottom base coating. Cells were allowed to grow for 14 days to form colonies. Colonies were stained with crystal violet and imaged by stitching 5X field images together to capture the entire well (Zeiss light microscope [Carl Zeiss]). Colony numbers were counted according to their diameters (100-300um or >300um). Three independent biological replicates were performed for all the assays.

DuNE spheroids = assay: DuNE 3D spheroid growth (Incucyte); format: cell-based; conditions: 0-100 μM, 0-6 days, read-out: concentration to achieve 50% spheroid growth inhibition
Text: as §2
For a spheroid generation, 1000 cells/well were seeded in 96-well ULA round-bottomed plates (Corning, Amsterdam) using a multichannel pipette. 3D multicellular spheroids were spontaneously generated after 24 h culture. Plates were incubated for 6 days at 37 °C, 5% CO2, and 95% humidity. DuNE and Du145 cells were cultured in DMEM with 10% FBS. Fully automated image analysis of tumor spheroids was carried out with the Incucyte® S3 Live-Cell Analysis System. The size and shape of multicellular spheroids were analyzed by using the Incucyte® Spheroid Analysis Software Module.

Lin28b ZKD [1] = molecular target: T2, Lin28b ZKD (Homo sapiens, UniProt Q6ZN17); assay: EMSA, Lin28b ZKD:pre-let-7d complex formation; format: binding; conditions: 1 μM Lin28 ZKD, 10 nM IRDye800-labeled pre-let-7d probe
T2 sequence (Q6ZN17 127-166 limits assumed): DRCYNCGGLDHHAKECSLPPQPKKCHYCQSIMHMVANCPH
Experimental: as §1
EMSA followed the standard protocols we published. An IRDye800CWN-labeled pre-Let-7d RNA probe (5’-IRD800CWN-[…]-3’) was purchased from IDT (Coralville, IA, USA). Lin28a or Lin28b proteins were incubated with 300 nM of probe in a standard 20 uL EMSA reaction in a reaction buffer containing 20 mM HEPES-NaOH, pH 7.4, 2 mM DTT, 3 mM MgCl2, 0.05% NP-40, protease inhibitors, and 0.1 ug poly[dI:dC]. After incubation for 30 min at 37 °C, reactions were loaded onto 4% non-denatured polyacrylamide gel in 0.5× TBE buffer. The RNA oligo bands were visualized by using the Li-Cor Odyssey 9120 Infrared Imaging System.

Lin28b ZKD [2] = molecular target: T2, Lin28b ZKD; assay: 1H-15N HSQC NMR of Lin28b-ZKD with ligand; format: binding; conditions: ligand added in 20:1 molar ratio
Text: Given that Ln268 is derived from the parent compound Ln15, we wanted to assess whether the improved properties of Ln268 were linked to a potential difference in its interaction with Lin28 ZKD. To this end, we collected ^1H-^15N HSQC spectra of Lin28b-ZKD, Lin28b-ZKD + Ln15, and Lin28b-ZKD + Ln268. RNA binding proteins (RBPs) commonly have binding pockets that are intrinsically disordered, as evidenced by the narrow chemical shift dispersion observed in the HQSC of Lin28b-ZKD alone (Fig. 3D). Addition of either Ln15 or Ln268 led to changes in the chemical shifts of ca. 20 residues, consistent with the change in conformation of the Lin28b-ZKD segment which encompasses residues 137–160 (three of which are prolines) upon RNA binding (Fig. 3E). Although many of the peak shifts are the same for the Ln15 and Ln268 containing samples, there are around 7 resonances where the peaks disappear in the case of Ln268.
NMR spectra were recorded at 5 °C on a Bruker Avance III 850 MHz spectrometer, equipped with a TCI cryoprobe. ^1H-^15N HSQC experiments were recorded on ^13C/^15N-labeled Lin28b ZKD (230 μM), in 20 mM d-Tris-HCl (pH 7.5), 100 mM NaCl, 1 mM d-DTT, 0.02% NaN3, 0.25 mM ZnCl2 + 1 mM IDA, and 10% D2O, to which unlabeled Ln15 and Ln268 was added, respectively. The time domain matrix was 4k by 512. Four scans were acquired per t1 increment. Spectra were processed and plotted using Topspin to a final size of 8k by 1k. For the overlays, the levels were set to the same base level in all cases, with a multiplication factor of 1.1.

Lin28b ZKD [3] = molecular target: T2, Lin28b ZKD; assay: Fluorescence polarization (FP) assay, Lin28b ZKD:pre-let-7d interaction; format: binding; conditions: 10 nM pre-let-7d probe, 1 μM Lin28b ZKD
Experimental: We conducted two biochemical assays, FP and EMSA, to validate the predicted compounds. To optimize the FP assays, we performed a series of titrations using: (1) FAM-labeled pre-let-7d RNA probe, (2) Lin28b ZKD protein, and (3) non-labeled pre-let-7 probe as a competitor (Fig. 2A). These assays yielded the optimal concentrations required for the subsequent FP validation assays, namely 10 nM for the pre-let-7d probe and 1 μM for Lin28b ZKD protein. The FP signal from the free probe was set as 0%, while the signal from the probe-ZKD complex in the absence of compounds was set as 100%. C1632 was used as a control Lin28 inhibitor (Fig. 2B). […] Since the docking pocket is almost identical between Lin28a and Lin28b homologs, we repeated the FP assays using Lin28a ZKD (Figure S2).
The fluorescein amidites (FAM)-tagged pre-Let-7d probe with the sequence of […] was purchased from Integrated DNA Technologies (IDT). The probe at the concentrations ranging from 1 nM to 50 uM was incubated with Lin28B (ZKD) or Lin28 (CSD+ZKD) to a final volume of 30 uL at room temperature for 20 min. To read the fluorescence, a TECAN 500 machine was used. Fluorescence polarization was calculated using the following equation:
P=(Fparrallel−Fperpendicular)/(Fparrallel+FperpendicularP)
where P is the fluorescence polarization reading, F parallel is the fluorescence intensity acquired from the parallel excitation plane, and F perpendicular is the fluorescence intensity acquired from the perpendicular direction of the excitation plane. The total fluorescence intensity is estimated using the following equation:
F=Fparallel+2FperpendicularF.
All the raw FP signal data from the TECAN 500 FP results were analyzed using Prism 8.0 (GraphPad, San Diego, CA, USA); normalized curves were plotted and IC50 values were estimated. All FP data were repeated three to five times.
Figure S1. Lin28b ZKD protein was incubated with the indicated compounds at the concentration of 0, 0.1, 0.2, 0.5, 1, 2, 5, 10, 20, 50, 100, and 200uM. FP signals were measured and plotted relative to that from vehicle.

inhibition of Lin28a protein (EMSA) (Lin28a protein) | inhibition of Lin28b ZKD:pre-let-7d complex formation (EMSA) (Lin28b ZKD [1]) | residues of Lin28b-ZKD with changed chemical shifts (1H-15N HSQC) (Lin28b ZKD [2]) | pIC50 (Lin28b ZKD [3]) | Compound | concentration needed for inhibitory effects on cancer cells (cancer cells) | decrease of colony formation counts (DuNE cells) | pIC50 (DuNE spheroids)
did not observe any obvious inhibition | did not observe any obvious inhibition | – | – | CC(=O)N(C)c1cccc(-c2ccc3nnc(C)n3n2)c1 [C1632, reference compound] | exceeding 100 μM | 22% | 4.00
– | – | ca. 20 residues | 5.05 | O=c1[nH]c(Nc2ccccc2O)cs1 [Ln15] | – | 75% | 4.30
